Columns and labels:
[1] = Protein binding in human plasma assessed as drug recovery rate at 1 uM incubated for 6 hrs; type: ADME, cell-free; conditions: read-out: Drug recovery
[2] = system: Human immunodeficiency virus 1; test: Antiviral activity against wild-type HIV-1 IIIB infected in human MT4 cells assessed as protection against virus-induced cytopathicity measured after 5 days post-infection by MTT assay; type: functional, organism-based; conditions: Human immunodeficiency virus 1, IIIB, MT4, 120 h
[3] = system: Human immunodeficiency virus 1; test: Antiviral activity against drug-resistant HIV-1 harboring RT E138K mutant infected in human MT4 cells assessed as protection against virus-induced cytopathicity measured after 5 days post-infection by MTT assay; type: functional, organism-based; conditions: Human immunodeficiency virus 1, MT4, 120 h
[4] = Drug metabolism in dog liver microsomes assessed as metabolic fraction at 1 uM measured up to 45 mins by LC/MS/MS analysis; type: ADME, Canis lupus familiaris, Microsome; conditions: liver microsomes, read-out: Fm
[5] = Metabolic stability in dog liver microsomes assessed as half life at 1 uM measured up to 45 mins by LC/MS/MS analysis; type: ADME, Canis lupus familiaris, Microsome; conditions: liver microsomes
[6] = system: Human immunodeficiency virus 1; test: Antiviral activity against drug-resistant HIV-1 harboring RT K103N mutant infected in human MT4 cells assessed as protection against virus-induced cytopathicity measured after 5 days post-infection by MTT assay; type: functional, organism-based; conditions: Human immunodeficiency virus 1, MT4, 120 h
[7] = Metabolic stability in rat liver microsomes assessed as half life at 1 uM measured up to 45 mins by LC/MS/MS analysis; type: ADME, Microsome; conditions: 0.75 h
[8] = system: Human immunodeficiency virus 1; test: Antiviral activity against drug-resistant HIV-1 harboring RT RES056 mutant infected in human MT4 cells assessed as protection against virus-induced cytopathicity measured after 5 days post-infection by MTT assay; type: functional, organism-based; conditions: Human immunodeficiency virus 1, MT4, 120 h
[9] = system: Human immunodeficiency virus 1; test: Antiviral activity against drug-resistant HIV-1 harboring RT F227L/V106A mutant infected in human MT4 cells assessed as protection against virus-induced cytopathicity measured after 5 days post-infection by MTT assay; type: functional, organism-based; conditions: Human immunodeficiency virus 1, MT4, 120 h
[10] = system: Human immunodeficiency virus 1; test: Antiviral activity against drug-resistant HIV-1 harboring RT Y188L mutant infected in human MT4 cells assessed as protection against virus-induced cytopathicity measured after 5 days post-infection by MTT assay; type: functional, organism-based; conditions: Human immunodeficiency virus 1, MT4, 120 h
[11] = Drug metabolism in human liver microsomes assessed as metabolic fraction at 1 uM measured up to 45 mins by LC/MS/MS analysis; type: ADME, Microsome; conditions: liver microsomes, read-out: Fm
[12] = system: Human immunodeficiency virus 1; test: Antiviral activity against drug-resistant HIV-1 harboring RT Y181C mutant infected in human MT4 cells assessed as protection against virus-induced cytopathicity measured after 5 days post-infection by MTT assay; type: functional, organism-based; conditions: Human immunodeficiency virus 1, MT4, 120 h
[13] = Drug metabolism in rat liver microsomes assessed as metabolic fraction at 1 uM measured up to 45 mins by LC/MS/MS analysis; type: ADME, Microsome; conditions: 0.75 h
[14] = Cytotoxicity against human MT4 cells assessed as reduction in cell viability by MTT assay; type: toxicity, cell-based
[15] = system: Human immunodeficiency virus 1; test: Antiviral activity against drug-resistant HIV-1 harboring RT L100I mutant infected in human MT4 cells assessed as protection against virus-induced cytopathicity measured after 5 days post-infection by MTT assay; type: functional, organism-based; conditions: Human immunodeficiency virus 1, MT4, 120 h
[16] = Metabolic stability in human liver microsomes assessed as half life at 1 uM measured up to 45 mins by LC/MS/MS analysis; type: ADME, Microsome
[17] = target: Human immunodeficiency virus type 1 reverse transcriptase (Human immunodeficiency virus 1, UniProt Q72547); test: Inhibition of recombinant wild type HIV-1 reverse transcriptase incubated for 40 mins in presence of poly(rA) template/oligo(dT)16 primer by Pico-Green dye based analysis
[18] = Solubility of compound at pH 7; type: physicochemical; conditions: buffer

| SMILES | recovery at 6 h, 1 µM [1] | EC50 [2] | EC50 [3] | metabolised at 0.75 h, 1 µM [4] | half-life at 1 µM [5] | EC50 [6] | t1/2 [7] | EC50 [8] | EC50 [9] | EC50 [10] | metabolised at 0.75 h, 1 µM [11] | EC50 [12] | Fm [13] | CC50 [14] | EC50 [15] | half-life at 1 µM ([16]; liver microsomes) | t1/2 ([16]; microsomes, 0.75 h, 1 µM) | IC50 [17] | solubility [18] |
| --- | --- | --- | --- | --- | --- | --- | --- | --- | --- | --- | --- | --- | --- | --- | --- | --- | --- | --- | --- |
| CC(=O)CC(c1ccccc1)c1c(O)c2ccccc2oc1=O (stereo not drawn) [WARFARIN] | 96.9% | – | – | – | – | – | – | – | – | – | – | – | – | – | – | – | – | – | – |
| Cc1cc(/C=C/C#N)cc(C)c1Nc1ccnc(Nc2ccc(C#N)cc2)n1 [RILPIVIRINE] | – | 1.27 nM | 3.14 nM | 44.8% | 79.3 min | 0.89 nM | 7.3 min | 12.4 nM | 50.8 nM | 54 nM | 13% | 2.66 nM | 13.3% | 6800 nM | 2.05 nM | 16 min | 16 min | 20 nM | – |
| Cc1cc(C#N)cc(C)c1Oc1nc(Nc2ccc(C#N)cc2)nc(N)c1Br [ETRAVIRINE] | – | – | 10.3 nM | – | – | – | – | 36.5 nM | – | – | – | – | – | > 4600 nM | 4.22 nM | – | – | – | < 1 µg/mL |

— ChEMBL document CHEMBL6134848, “Deuteration Strategy-Inspired Design of Novel Diarylpyrimidine Derivatives as Potent Non-Nucleoside Reverse Transcriptase Inhibitors Featuring Improved Efficacy, Selectivity, and Druggability” (J Med Chem, 2025)
